Test: solvent given as SMILES

`CCc1ccc(/C=N/c2cc(C(C)C)c(O)cc2C)cc1` gave an absorption maximum (in C1CCCCC1) of 344 nm, an absorption maximum (in C1CCOC1) of 348 nm and an absorption maximum (in C1COCCO1) of 347 nm. The absorption maximum (in CC#N) was 340 nm, the absorption maximum (in CC(C)(C)O) was 350 nm and the absorption maximum (in CC(C)O) was 347 nm. For the same molecule, the absorption maximum (in CCCCCC) was 342 nm, the absorption maximum (in CCCCO) was 349 nm and the absorption maximum (in CCO) was 346 nm. The absorption maximum (in CCOC(C)=O) was 346 nm, the absorption maximum (in CN(C)C=O) was 351 nm and the absorption maximum (in CO) was 346 nm. It also gave an absorption maximum (in CS(C)=O) of 352 nm, an absorption maximum (in ClC(Cl)Cl) of 343 nm and an absorption maximum (in ClCCl) of 341 nm. The absorption maximum (in O) was 354 nm and the absorption maximum (in OCCO) was 346 nm.
`C1=CN2C[n+]3ccc4ccccc4c3N=C2c2ccccc21` gave an absorption maximum (in CO) of 453 nm.
`O=c1oc2ccccc2cc1-c1ccc([N+](=O)[O-])cc1` gave an absorption maximum (in C1CCOC1) of 331 nm, an absorption maximum (in CC#N) of 336 nm and an absorption maximum (in CS(C)=O) of 344 nm. The absorption maximum (in ClC(Cl)Cl) was 341 nm.
With `CC(C)Nc1cc2oc3cc(NC(C)C)c(F)cc3c(=O)c2cc1F` the absorption maximum (in CCO) was 370 nm.
In the case of `C(/C=C/c1ccc(-n2c3ccccc3c3ccccc32)cc1)=C\c1ccncc1`, the absorption maximum (in C1COCCO1) is reported as 356 nm, the absorption maximum (in CC#N) is reported as 350 nm and the absorption maximum (in CCCCCCC) is reported as 360 nm. It also gave an absorption maximum (in CO) of 353 nm.
Molecule `CCCCCCCCC1(CCCCCCCC)c2cc(-c3ccc(C#N)cc3)ccc2-c2ccc(-c3ccc(C#N)cc3)cc21` has an absorption maximum (in ClC(Cl)Cl) of 341 nm.
`CCOC(=O)c1c(C=Cc2ccccc2)oc(NC2CCCCC2)c1C(=O)OCC` showed an absorption maximum (in CC#N) of 384 nm.
In the case of `COc1cc2c3c(c4cc(OC)c(OC)c(OC)c4c2c(OC)c1OC)=[N+]1C(=C(c2c(C)cc(C)cc2C)c2cc4c5cc(OC)c(OC)c(OC)c5c5c(OC)c(OC)c(OC)cc5c4n2[B-]1(F)F)C=3`, the absorption maximum (in C1CCCCC1) is reported as 733 nm, the absorption maximum (in C1CCOC1) is reported as 730 nm and the absorption maximum (in CC#N) is reported as 718 nm. It also gave an absorption maximum (in Cc1ccccc1) of 740 nm and an absorption maximum (in ClCCl) of 727 nm.
Work on `COc1cc(-c2nc3sc4ccccc4c3s2)cc(OC)c1OC` yielded an absorption maximum (in CS(C)=O) of 358 nm.
Work on `CC(C)(C)c1ccc(C2=C(c3ccc(C(C)(C)C)cc3)C(c3ccc(C(C)(C)C)cc3)=[N+]3C2=C(c2ccccc2)c2c(-c4ccc(C(C)(C)C)cc4)c(-c4ccc(C(C)(C)C)cc4)c(-c4ccc(C(C)(C)C)cc4)n2[B-]3(F)F)cc1` yielded an absorption maximum (in C1CCCCC1) of 589 nm, an absorption maximum (in C1CCOC1) of 585 nm and an absorption maximum (in CC#N) of 563 nm. It also gave an absorption maximum (in Cc1ccccc1) of 591 nm and an absorption maximum (in ClCCl) of 579 nm.
With `CCOC(=O)c1cc2ccc3ccccc3c2c(C#N)c1N` the absorption maximum (in Cc1ccccc1) was 435 nm.
`N#CC=C(c1ccc(N2c3ccccc3Oc3ccccc32)cc1)c1ccc(N2c3ccccc3Oc3ccccc32)cc1` showed an absorption maximum (in Cc1ccccc1) of 405 nm.
With `CCn1c2ccccc2c2cccc(N(c3ccccc3)c3ccccc3)c21` the absorption maximum (in ClCCl) was 353 nm.
In the case of `C[Si](C)(C)C#Cc1ccc(C#C[Si](C)(C)C)c2ccccc12`, the absorption maximum (in C1CCCCC1) is reported as 347 nm.
`F[B-]1(F)OC(c2ccc(C(F)(F)F)cc2)=Cc2ccc3ccccc3[n+]21` gave an absorption maximum (in ClC(Cl)Cl) of 424 nm.
`F[B-]1(F)n2c(cc3oc4ccccc4c32)C(c2ccc(I)cc2)=C2C=c3oc4ccccc4c3=[N+]21` showed an absorption maximum (in ClC(Cl)Cl) of 637 nm.
`C(#Cc1ncc(-c2ccccc2)o1)c1ccco1` showed an absorption maximum (in ClCCl) of 325 nm.
In the case of `CCCCCCn1c(=O)c2c3oc4ccccc4oc3c3c(=O)n(CCCCCC)c(=O)c3c2c1=O`, the absorption maximum (in ClCCl) is reported as 395 nm.
